The source of these data is patent US4731360A, “Acylcarnitines as absorption-enhancing agents for drug delivery through mucous membranes of the nasal, buccal, sublingual and vaginal compartments” (Merck & Co., Inc., priority 1985, dated 1988).

The subject of series [1] is mucous membranes of the nasal, buccal, sublingual and vaginal compartments. Kind of series: Promotion of drug absorption through mucous membranes. The following applies: without acyl ester.
A further series deals with mucosal cells. Particulars: studies of surfactants; cited from earlier work.
A short description of series [2]: Percent bioavailability of α-methyldopa after nasal, oral (buccal) or vaginal administration to rats, with or without palmitoylcarnitine chloride; blood levels by HPLC, against intravenous administration. In kind it is in vivo. Particulars: aqueous formulation, mean ± SD, n = 3, vs intravenous; for Percent α-methyldopa Bioavailability in the Presence (+) of Palmitoylcarnitine: with 1.0 mg palmitoylcarnitine chloride; for Percent α-methyldopa Bioavailability in the Absence (-) of Palmitoylcarnitine: without palmitoylcarnitine. Here is the method:
Effect of palmitoylcarnitine chloride on the nasal, buccal and vaginal absorption of α-methyldopa (amino acid, antihypertensive). Experiments were performed with rats wherein each animal received an aqueous formulation administered to the nasal, oral or vaginal cavities. The formulations contained the indicated amount of α-methyldopa in the presence or absence of 1.0 mg palmitoylcarnitine chloride. Procedures were tested to eliminate the possibility of cross-contamination between the nasal and oral cavities. Blood levels of α-methyldopa were determined by high performance liquid chromatography and the amount of drug absorbed (percent bioavailability) calculated against intravenous α-methyldopa administration. | Values represent the mean ± SD for n = 3 determinations.

Where [3] appears, read: nasal cavity, α-methyldopa 0.5 mg.
Where [4] appears, read: oral cavity (buccal), α-methyldopa 2.5 mg.
Where [5] appears, read: vaginal cavity, α-methyldopa 2.5 mg.

Each structure is given as a SMILES string.

Turning to `C[N+](C)(C)CC(O)CC(=O)[O-]` (centres unmarked) [carnitine], the “absorption promoting effect of carnitine alone” value in series [1] was “no effect”.

`CCCCCCCCCCCCOS(=O)(=O)[O-].[Na+]` [sodium lauryl sulfate]: the “cellular damage associated with surfactant activity” value in the series on mucosal cells is recorded as “generally associated with some degree of cellular damage”.

With `C[C@](N)(Cc1ccc(O)c(O)c1)C(=O)O` [α-methyldopa], the “Percent α-methyldopa Bioavailability in the Presence (+) of Palmitoylcarnitine” value in series [2] (setting [3]) is on record as 52 ± 16.2%; in series [2] (setting [4]), 10 ± 6.0%; in series [2] (setting [5]) it was 100 ± 55.0%. The “Percent α-methyldopa Bioavailability in the Absence (-) of Palmitoylcarnitine” value in series [2] (setting [3]) was determined as 7 ± 1.1%; in series [2] (setting [4]) it was 3 ± 0.7%; in series [2] (setting [5]) it was 2 ± 1.0%.
